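96-well plates; 48 h exposure; 5 concentrations. Endpoints by linear interpolation between flanking doses. Not reached: highest tested concentration assigned. GI50 = concentration required for 50% inhibition of growth. TGI marks complete inhibition of growth.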
What was measured:
Assay in all cases: NCI tumour cell line growth inhibition, 48 h
OVCAR-8 ovarian = test system: OVCAR-8 ovarian
A498 renal = test system: A498 renal
CCRF-CEM leukemia = test system: CCRF-CEM leukemia
NCI-H460 lung = test system: NCI-H460 lung
OVCAR-5 ovarian = test system: OVCAR-5 ovarian
NCI/ADR-RES ovarian = test system: NCI/ADR-RES ovarian
NCI-H226 lung = test system: NCI-H226 lung
SR leukemia = test system: SR leukemia
CAKI-1 renal = test system: CAKI-1 renal
HCC-2998 colon = test system: HCC-2998 colon
PC-3 prostate = test system: PC-3 prostate
SK-MEL-28 melanoma = test system: SK-MEL-28 melanoma
SF-268 CNS = test system: SF-268 CNS
TK-10 renal = test system: TK-10 renal
UO-31 renal = test system: UO-31 renal
RXF 393 renal = test system: RXF 393 renal
LOX IMVI melanoma = test system: LOX IMVI melanoma
OVCAR-4 ovarian = test system: OVCAR-4 ovarian
OVCAR-3 ovarian = test system: OVCAR-3 ovarian
MDA-MB-231 breast = test system: MDA-MB-231 breast
HL-60(TB) leukemia = test system: HL-60(TB) leukemia
HOP-62 NSCLC = test system: HOP-62 NSCLC
BT-549 breast = test system: BT-549 breast
M14 melanoma = test system: M14 melanoma
MOLT-4 leukemia = test system: MOLT-4 leukemia
NCI-H522 lung = test system: NCI-H522 lung
ACHN renal = test system: ACHN renal
SK-OV-3 ovarian = test system: SK-OV-3 ovarian
RPMI-8226 leukemia = test system: RPMI-8226 leukemia
EKVX NSCLC = test system: EKVX NSCLC
MDA-MB-435 = test system: MDA-MB-435
DU-145 prostate = test system: DU-145 prostate
COLO 205 colon = test system: COLO 205 colon
UACC-257 melanoma = test system: UACC-257 melanoma
MDA-MB-468 breast = test system: MDA-MB-468 breast
K-562 leukemia = test system: K-562 leukemia
SF-539 CNS = test system: SF-539 CNS
SK-MEL-5 melanoma = test system: SK-MEL-5 melanoma
NCI-H23 lung = test system: NCI-H23 lung
UACC-62 melanoma = test system: UACC-62 melanoma
MCF7 breast = test system: MCF7 breast
HT29 colon = test system: HT29 colon
786-0 renal = test system: 786-0 renal
U251 CNS = test system: U251 CNS
HCT-15 colon = test system: HCT-15 colon
SK-MEL-2 melanoma = test system: SK-MEL-2 melanoma
KM12 colon = test system: KM12 colon
SF-295 CNS = test system: SF-295 CNS
T-47D breast = test system: T-47D breast
A549 NSCLC = test system: A549 NSCLC
SW-620 colon = test system: SW-620 colon
IGROV1 ovarian = test system: IGROV1 ovarian
SN12C renal = test system: SN12C renal
SNB-75 CNS = test system: SNB-75 CNS
MALME-3M melanoma = test system: MALME-3M melanoma
HS 578T breast = test system: HS 578T breast
SNB-19 CNS = test system: SNB-19 CNS
HOP-92 NSCLC = test system: HOP-92 NSCLC

## OCc1[nH]nc2cc(Nc3ncc4ccc(Br)c(OC5CCC(O)CC5)c4n3)ccc12 (centres undefined)
OVCAR-8 ovarian
  GI50: 40.5 nM
  TGI: > 71900 nM
A498 renal
  GI50: 49.5 nM
  TGI: 231 nM
CCRF-CEM leukemia
  GI50: 31.4 nM
  TGI: > 100000 nM
NCI-H460 lung
  GI50: 47.4 nM
  TGI: 4380 nM
OVCAR-5 ovarian
  GI50: 50 nM
  TGI: 316 nM
NCI/ADR-RES ovarian
  GI50: 226 nM
  TGI: 12200 nM
NCI-H226 lung
  GI50: 16.4 nM
  TGI: 77 nM
SR leukemia
  TGI: > 100000 nM
CAKI-1 renal
  GI50: 21.2 nM
  TGI: 2400 nM
HCC-2998 colon
  GI50: 51.2 nM
  TGI: 519 nM
PC-3 prostate
  GI50: 50.2 nM
  TGI: > 100000 nM
SK-MEL-28 melanoma
  GI50: 49.9 nM
  TGI: 963 nM
SF-268 CNS
  GI50: 33.5 nM
  TGI: 1320 nM
TK-10 renal
  GI50: 78.7 nM
  TGI: 729 nM
UO-31 renal
  GI50: 28.8 nM
  TGI: 278 nM
RXF 393 renal
  GI50: 19.3 nM
  TGI: 46.7 nM
LOX IMVI melanoma
  GI50: 16.4 nM
  TGI: 59.2 nM
OVCAR-4 ovarian
  GI50: 44.2 nM
  TGI: 1760 nM
OVCAR-3 ovarian
  GI50: 25.6 nM
  TGI: 171 nM
MDA-MB-231 breast
  GI50: 30.1 nM
  TGI: 505 nM
HL-60(TB) leukemia
  GI50: 14.7 nM
  TGI: 105 nM
HOP-62 NSCLC
  GI50: 34 nM
  TGI: 22800 nM
BT-549 breast
  GI50: 27.4 nM
  TGI: 133 nM
M14 melanoma
  GI50: 45 nM
  TGI: 1740 nM
MOLT-4 leukemia
  GI50: 37.2 nM
  TGI: > 100000 nM
NCI-H522 lung
  GI50: 202 nM
  TGI: 744 nM
ACHN renal
  GI50: 23.1 nM
SK-OV-3 ovarian
  GI50: 376 nM
  TGI: > 100000 nM
RPMI-8226 leukemia
  GI50: 276 nM
  TGI: > 100000 nM
EKVX NSCLC
  GI50: 67.3 nM
  TGI: 414 nM
MDA-MB-435
  GI50: 39.9 nM
  TGI: 2470 nM
DU-145 prostate
  GI50: 35.9 nM
  TGI: > 100000 nM
COLO 205 colon
  GI50: 31.7 nM
  TGI: 145 nM
UACC-257 melanoma
  GI50: 234 nM
  TGI: 9780 nM
MDA-MB-468 breast
  GI50: 30.1 nM
  TGI: 100 nM
K-562 leukemia
  GI50: 78.8 nM
  TGI: > 100000 nM
SF-539 CNS
  GI50: 22.5 nM
  TGI: 69.6 nM
SK-MEL-5 melanoma
  GI50: 27 nM
  TGI: 428 nM
NCI-H23 lung
  GI50: 40.2 nM
  TGI: 257 nM
UACC-62 melanoma
  GI50: 35.9 nM
  TGI: 379 nM
MCF7 breast
  GI50: 19.9 nM
  TGI: 1100 nM
HT29 colon
  GI50: 103 nM
  TGI: 487 nM
786-0 renal
  GI50: 37.1 nM
  TGI: 2700 nM
U251 CNS
  GI50: 39.1 nM
  TGI: > 100000 nM
HCT-15 colon
  GI50: 36 nM
  TGI: 1540 nM
SK-MEL-2 melanoma
  GI50: 47.6 nM
  TGI: 213 nM
KM12 colon
  GI50: 34.7 nM
  TGI: 358 nM
SF-295 CNS
  GI50: 40.6 nM
  TGI: 508 nM
T-47D breast
  GI50: 41.1 nM
  TGI: 904 nM
A549 NSCLC
  GI50: 157 nM
  TGI: > 100000 nM
SW-620 colon
  GI50: 25.7 nM
  TGI: 1960 nM
IGROV1 ovarian
  GI50: 32.6 nM
  TGI: 1190 nM
SN12C renal
  GI50: 35 nM
  TGI: 20000 nM
SNB-75 CNS
  GI50: 35.9 nM
  TGI: 296 nM
MALME-3M melanoma
  GI50: 88.2 nM
  TGI: 517 nM
HS 578T breast
  GI50: 44.4 nM
  TGI: 1850 nM
SNB-19 CNS
  GI50: 25.8 nM
  TGI: > 44800 nM
HOP-92 NSCLC
  GI50: 92.2 nM
  TGI: > 100000 nM
